Blank lines part the entries; values can stand above or below the compound they belong to.
Assays:
[1] = system: Nrf2 transcriptional activity; assay: HepG2/Luciferase/Nrf2-ARE transcriptional reporter assay; format: cell-based; conditions: tert-butylhydroquinone treated; 12 hours; 1, 3, 6 and 10 μM
Description: (§1) Jurkat/GFP/NF-κB transcriptional reporter cells were stimulated with TNF-α, Jurkat/Luciferase/NFAT transcriptional reporter cells were stimulated with PMA/ionomycin, and HepG2/Luciferase/Nrf2-Antioxidant response element (ARE) transcriptional reporter cells were treated with tert-butylhydroquinone. The respective cell lines were incubated for 12 hours in the presence of empty vehicle or 1, 3, 6 and 10 μM of IT-848 or IT-878. NF-κB transcriptional activity was analyzed by flow cytometry, NFAT and Nrf2 transcriptional activities were analyzed by luminescence measurement. Mean and SEM of relative fluorescent or luminescent intensities are presented.
(§2) A NF-κB/Jurkat/GFP transcription reporter cell line was purchased from System Biosciences. NFAT/Jurkat/Luciferase transcriptional reporter cells were generated at Memorial Sloan-Kettering Cancer Center. HepG2/ARE/Luciferase Nrf2 transcriptional reporter cells were purchased from BPS biosciences.

[2] = system: MM.1S multiple myeloma cells; assay: MTS cell proliferation assay, MM.1S; format: cell-based, human; conditions: 2, 4 and 6 μM, 24 and 48 hours
Description: MM.1S human multiple myeloma cells were incubated for 48 hours in the presence of empty vehicle or 2, 4 and 6 μM of IT-848, IT-878, PS-1145, or ibrutinib, Cell proliferation was analyzed after 24 and 48 hours by MTS assay. Mean and SEM or relative cell growth are presented.
(§3) TDM8, Ly19, L363, SUDHL4, MM.1S or U266 cells were independently incubated for up to 48 hours in the presence of empty vehicle, IT-compound (2, 4, 6 μM), PS-1145 (2, 4 and 6 μM), or ibrutinib (2, 4 and 6 μM). Cell growth was measured indirectly after 24 and 48 hours by CellTiter 96 Aqueous Non-Radioactive Cell Proliferation Assay (Promega, Madison, Wis.) per manufacturer's instructions. Briefly, tetrazolium compound [-(4,5-dimethylthiazol-2-yl)-5-(3-carboxymethoxyphenyl)-2-(4-sulfophenyl)-2H-tetrazolium, inner salt; MTS] was added to the culture media and the conversion of MTS into formazon was measured by the amount of 490 nm absorbance. The number of viable cells correlates with absorbance at 490 nm. The results are shown in FIGS. 5A-D. Mean and SEM of relative cell growth are presented.

[3] = system: NFAT transcriptional activity; assay: Jurkat/Luciferase/NFAT transcriptional reporter assay; format: cell-based; conditions: PMA/ionomycin stimulated; 12 hours; 1, 3, 6 and 10 μM
Description: as §1, §2

TMD8 cells = assay: MTS assay, combination with Panobinostat in TMD8 cells; format: cell-based, human; conditions: IT-848 4 μM + Panobinostat 0.1 μM; 24 and 48 hours
Description: TMD8 and DLBCL cells were incubated for 48 hours in the presence of empty vehicle, IT-848 (4 μM), Panobinostat (0.1 μM), or a combination of IT-848 and Panobinaostat. Cell proliferation was analyzed after 24 and 48 hours by MTS assay. Mean and SEM of relative cell growth are presented.

mouse splenocytes [4] = assay: Toxicity to healthy cells (DAPI viability, MTS metabolic activity), mouse splenocytes; format: cell-based; conditions: 24 hours, 1, 3, 6 and 10 μM
Description: (§4) Mouse splenocytes and human peripheral blood mononuclear cells (PBMC) were incubated for 24 hours in the presence of empty vehicle or 1, 3, 6 and 10 μM of IT-848 or IT-878. Viability (percentage of DAPI-negative cells) was analyzed by flow cytometry and metabolic activity was analyzed by MTS assay. Mean and SEM of relative viability or metabolic activity are presented.
(§5) Human peripheral blood mononuclear cells (PBMC) were purified from donor blood according to accepted protocols. Mouse splenocytes were purified from mouse spleen using methods known to those skilled in the art.

[5] = system: TMD8 B cell lymphoma cells; assay: MTS cell proliferation assay, TMD8; format: cell-based, human; conditions: 2, 4 and 6 μM, 24 and 48 hours
Description: TMD8 human DLBCL cells were incubated for 48 hours in the presence of empty vehicle or 2, 4 and 6 μM of IT-848, IT-878, PS-1145, or ibrutinib, Cell proliferation was analyzed after 24 and 48 hours by MTS assay. Mean and SEM or relative cell growth are presented.
as §3

MM.1S and U266 cells = assay: ROS levels by DCFDA assay in multiple myeloma cells; format: cell-based, human
Description: (§6) MM.1S cells, U266 cells or mouse splenocytes were cultured in the presence of empty vehicle or serial dilutions of IT-848. ROS levels were quantified after 4 hours and 24 hours by DCFDA assay.
(§7) Cells were treated in vitro with IT-848 (compound of Formula I), IT-878 (compound of Formula II) or vehicle solution. Reactive oxygen species (ROS) levels were analyzed by cell labelling with 2′, 7′-dichlorofluorescein diacetate (DCFDA) using a Cellular Reactive Oxygen Species Detection Assay Kit (Abcam, Cambridge, Mass.) ROS levels were analyzed by quantifying the fluorogenic marker DCFDA using flow cytometery (LSR II, BD Bioscience, San Jose, Calif.).

[6] = system: NF-κB transcriptional activity; assay: Jurkat/GFP/NF-κB transcriptional reporter assay; format: cell-based; conditions: 12 hours; 1, 3, 6 and 10 μM
Description: Jurkat/GFP/NF-κB transcriptional reporter cells were stimulated with TNF-α and incubated for 8 and 22 hours in the presence of empty vehicle or 1, 3 and 6 μM of IT-848 or IT-878. NF-κB transcriptional activity (GFP mean fluorescence intensity) was analyzed by flow cytometry. Mean and SEM of relative fluorescent intensities are presented.
as §1, §2

interleukin 6 (IL-6) = assay: IL-6 secretion by ELISA in DLBCL and MM cell lines; format: cell-based, human; conditions: TMD8, HBL1 and U266 cells; 4 and 6 μM; 12 and 24 hours
Description: TMD8, HBL1 and U266 cells were incubated for 24 hours in the presence of empty vehicle or IT-848 (4 and 6 μM). IL-6 concentrations in the culture media were analyzed after 12 and 24 hours by ELISA. Mean and SEM of relative IL-6 levels (percentage of vehicle) are presented.

[7] = system: human peripheral blood mononuclear cells (PBMC); assay: Toxicity to healthy cells (DAPI viability, MTS metabolic activity), human PBMC; format: cell-based; conditions: 24 hours, 1, 3, 6 and 10 μM
Description: as §4, §5

[8] = system: U266 multiple myeloma cells; assay: MTS cell proliferation assay, U266; format: cell-based, human; conditions: 2, 4 and 6 μM, 24 and 48 hours
Description: U266 human multiple myeloma cells were incubated for 48 hours in the presence of empty vehicle or 2, 4 and 6 μM of IT-848, IT-878, PS-1145, or ibrutinib, Cell proliferation was analyzed after 24 and 48 hours by MTS assay. Mean and SEM or relative cell growth are presented.
as §3

mouse splenocytes [9] = assay: ROS levels by DCFDA assay in mouse splenocytes; format: cell-based
Description: as §6, §7

[10] = system: luciferase-expressing MM.1S cells; assay: MM.1S xenograft model of multiple myeloma in NSG mice; format: in vivo, mouse; conditions: IT-848 10 mg/kg i.p. M/W/F x 4 weeks; Bortezomib 0.5 mg/kg i.p. M/T x 4 weeks
Description: NSG mice received 2.5×10^6 luciferase-expressing MM.1S cells intravenously. After 10 days engraftment was confirmed and mice were assigned to four groups: empty vehicle i.p. M/W/F×4 weeks; Bortezomib 0.5 mg/kg i.p. M/T×4 weeks; IT-848 10 mg/kg i.p. M/W/F×4 weeks; Bortezomib M/T+IT-848 M/W/F×4 weeks. A. Tumor growth was analyzed by in vivo bioluminescence imaging. B. Mean and SEM of bioluminescence intensities are presented. N=7-10 The area under the curve (AUC) was used to summarize the bioluminescence intensity for each subject and a permutation test was performed to determine if there was a difference in the AUCs between groups. P values are as follows: Group 1 vs. 2: 0.008; Group 2 vs. 3: 0.032; Group 1 vs 3: <0.001; Group 2 vs 4: <0.001; Group 1 vs 4: <0.001; Group 3 vs 4: 0.029.
In tumor xenograft experiments the bioluminescent signal intensity (BLI) of tumor bearing mice was determined weekly. […] The cause of death (tumor versus toxicity) was determined based on the presence of hind leg paralysis. Death in the absence of hind leg paralysis was attributed to toxicity.
Efficacy studies of IT-848 combined with drugs that are currently used clinically to treat B cell malignancies were also performed. […] Moreover, IT-848 was efficacious in a xenograft model of MM (FIGS. 14, 15A and 15B) and enhanced the efficacy of bortezomib (FIGS. 15A and 15B). Immunodeficient mice received bioluminescent MM.1S cells intravenously and bone marrow engraftment was confirmed by in vivo bioluminescence imaging (BLI) after ten days. Mice were assigned to three treatment groups (IT-848 single agent, bortezomib single agent, combination of IT-848 and bortezomib) and a control group (empty vehicle IP). Onset of hind leg paralysis, which is the clinical endpoint of progressive disease in this model, was delayed in all three treatment groups (FIG. 9).

HBL1 cells = assay: MTS assay, combination with Bortezomib in HBL1 cells; format: cell-based, human; conditions: IT-848 4 μM + Bortezomib 0.02 μM; 24 and 48 hours
Description: HBL1 human DLBCL cells were incubated for 48 hours in the presence of empty vehicle, IT-848 (4 μM), Bortezomib (0.02 μM), or a combination of IT-848 and Bortezomib. Cell proliferation was analyzed after 24 and 48 hours by MTS assay. Mean and SEM of relative cell growth are presented.

[11] = Pharmacokinetics, plasma or whole blood levels by LC-MS/MS; format: in vivo; conditions: 5-10 mg/kg PO, IP or IV; in particular after IP or oral administration
Description: Plasma or whole blood samples were analyzed at several time points after intraperitoneal, intravenous or oral administration of 5-10 mg/kg of IT-848. Samples were analyzed by liquid chromatography-tandem mass spectrometry (LC-MS/MS). IT-848 is cleared slowly after systemic administration.

interleukin 10 (IL-10) = assay: IL-10 secretion by ELISA in DLBCL and MM cell lines; format: cell-based, human; conditions: TMD8, HBL1 and U266 cells; 4 and 6 μM; 12 and 24 hours
Description: TMD8, HBL1 and U266 cells were incubated for 24 hours in the presence of empty vehicle or IT-848 (4 and 6 μM). IL-10 concentrations in the culture media were analyzed after 12 and 24 hours by ELISA. Mean and SEM of relative IL-10 levels (percentage of vehicle) are presented.

[12] = system: SUDHL4 B cell lymphoma cells; assay: MTS cell proliferation assay, SUDHL4; format: cell-based, human; conditions: 2, 4 and 6 μM, 24 and 48 hours
Description: SUDHL4 human DLBCL cells were incubated for 48 hours in the presence of empty vehicle or 2, 4 and 6 μM of IT-848, IT-878, PS-1145, or ibrutinib, Cell proliferation was analyzed after 24 and 48 hours by MTS assay. Mean and SEM or relative cell growth are presented.
as §3

effect on Nrf2 transcriptional activity [1]: spared
effect on NFAT transcriptional activity [3]: spared
clearance [11]: slow
Compound: CCCCCCOc1ccc2cc3c(=O)[nH]c(=O)nc-3oc2c1Cl [IT-848, 9-chloro-8-(hexyloxy)-2H-chromeno[2,3-d]pyrimidine-2,4(3H)-dione]
cell growth (MTS) [2]: inhibits growth
effect on activity of Panobinostat (cell growth, MTS) (TMD8 cells): enhances the activity
viability and metabolic activity of healthy cells (mouse splenocytes [4]): acceptable level of compromise
cell growth (MTS) [5]: inhibits growth
ROS levels (MM.1S and U266 cells; after 24 hours): decreased levels
ROS levels (MM.1S and U266 cells; after four hours): unchanged or increased levels
specificity of inhibition of transcriptional activity [6]: specific to NF-kB
secretion of IL-6 (interleukin 6 (IL-6)): decreased
viability and metabolic activity of healthy cells [7]: acceptable level of compromise
cell growth (MTS) [8]: inhibits growth
ROS levels (mouse splenocytes [9]; after 4 hours): did not alter levels
ROS levels (mouse splenocytes [9]; after 24 hours): small increase
onset of hind leg paralysis [10]: delayed
tumor growth by in vivo bioluminescence imaging (BLI) [10]: efficacious
effect on activity of Bortezomib (cell growth, MTS) (HBL1 cells): enhances the activity
secretion of IL-10 (interleukin 10 (IL-10)): decreased
cell growth (MTS) [12]: inhibits growth

Compound: COCCCCOc1ccc2cc3c(=O)[nH]c(=O)nc-3oc2c1Cl [IT-878, 9-chloro-8-(4-methoxybutoxy)-2H-chromeno[2,3-d]pyrimidine-2,4(3H)-dione]
effect on Nrf2 transcriptional activity [1]: spared
effect on NFAT transcriptional activity [3]: spared
viability and metabolic activity of healthy cells (mouse splenocytes [4]): acceptable level of compromise
specificity of inhibition of transcriptional activity [6]: specific to NF-kB
viability and metabolic activity of healthy cells [7]: acceptable level of compromise

Compound: CC(C)C[C@H](NC(=O)[C@H](Cc1ccccc1)NC(=O)c1cnccn1)B(O)O [bortezomib, reference compound]
onset of hind leg paralysis [10]: delayed
tumor growth by in vivo bioluminescence imaging (BLI) [10]: efficacious

From patent publication US20190314377A1, “TREATMENT OF HEMATOLOGICAL MALIGNANCY WITH SMALL MOLECULE NF-KB INHIBITORS” (MEMORIAL SLOAN-KETTERING CANCER CENTER, priority 2016, published 2019)
